ChEMBL document CHEMBL5303304, “EUbOPEN Chemogenomics Library - IncuCyte” (2023)

Assays:
Type in all cases: toxicity, cell-based
HEK-293T = assay: Incucyte cell viability with HEK293T; settings: human, 10 µM, compound concentration 10 uM
Fibroblast = assay: Incucyte cell viability with human fibroblast; settings: 10 µM, compound concentration 10 uM
U2OS = assay: Incucyte cell viability with U2OS; settings: human, 10 µM, compound concentration 10 uM
Further: unitless GR value; below 1 slowed growth and below 0 cell loss.

CCc1cncnc1N1CCN(Cc2nc3cc(C(F)(F)F)ccc3[nH]2)CC1
Growth Rate (HEK-293T; 6 h, replicate number 1): 0.41 | Growth Rate (HEK-293T; 6 h, replicate number 2): 0.28 | Growth Rate (HEK-293T; 12 h, replicate number 1): 0.53 | Growth Rate (HEK-293T; 12 h, replicate number 2): 0.34 | Growth Rate (HEK-293T; 18 h, replicate number 1): 0.65 | Growth Rate (HEK-293T; 18 h, replicate number 2): 0.48 | Growth Rate (HEK-293T; 24 h, replicate number 1): 0.88 | Growth Rate (HEK-293T; 24 h, replicate number 2): 0.58 | Growth Rate (Fibroblast; 0 h, replicate number 1): 0.88 | Growth Rate (Fibroblast; 6 h, replicate number 1): 1 | Growth Rate (Fibroblast; 6 h, replicate number 2): -0.99 | Growth Rate (Fibroblast; 12 h, replicate number 1): -1 | Growth Rate (Fibroblast; 12 h, replicate number 2): 0.78 | Growth Rate (Fibroblast; 18 h, replicate number 1): 0.44 | Growth Rate (Fibroblast; 24 h, replicate number 1): 0.31 | Growth Rate (Fibroblast; 24 h, replicate number 2): 0.93 | Growth Rate (U2OS; 0 h, replicate number 2): -0.83 | Growth Rate (U2OS; 6 h, replicate number 1): 0.31 | Growth Rate (U2OS; 6 h, replicate number 2): 0.19 | Growth Rate (U2OS; 12 h, replicate number 1): 0.51 | Growth Rate (U2OS; 12 h, replicate number 2): 0.49 | Growth Rate (U2OS; 18 h, replicate number 1): 0.53 | Growth Rate (U2OS; 18 h, replicate number 2): 0.57 | Growth Rate (U2OS; 24 h, replicate number 1): 0.7 | Growth Rate (U2OS; 24 h, replicate number 2): 0.84

Nc1n[nH]c2nc(-c3ccc(NS(=O)(=O)c4cccc(Cl)c4Cl)cc3)cnc12
Growth Rate (HEK-293T; 6 h, replicate number 1): 0.93 | Growth Rate (HEK-293T; 6 h, replicate number 2): 0.42 | Growth Rate (HEK-293T; 12 h, replicate number 1): 0.83 | Growth Rate (HEK-293T; 12 h, replicate number 2): 0.81 | Growth Rate (HEK-293T; 18 h, replicate number 2): 0.84 | Growth Rate (HEK-293T; 24 h, replicate number 2): 0.95 | Growth Rate (Fibroblast; 0 h, replicate number 1): 0.67 | Growth Rate (Fibroblast; 0 h, replicate number 2): -0.78 | Growth Rate (Fibroblast; 6 h, replicate number 1): -0.19 | Growth Rate (Fibroblast; 6 h, replicate number 2): -1 | Growth Rate (Fibroblast; 12 h, replicate number 1): -0.95 | Growth Rate (U2OS; 0 h, replicate number 1): 0.36

COCCNc1nc2ccc(C#CC3(O)CCCCC3)cc2n1-c1ccnc(N)n1
Growth Rate (HEK-293T; 6 h, replicate number 1): 0.37 | Growth Rate (HEK-293T; 12 h, replicate number 2): 1 | Growth Rate (HEK-293T; 18 h, replicate number 2): 0.96 | Growth Rate (HEK-293T; 24 h, replicate number 2): 0.84 | Growth Rate (Fibroblast; 6 h, replicate number 1): -0.48 | Growth Rate (Fibroblast; 6 h, replicate number 2): -1 | Growth Rate (Fibroblast; 12 h, replicate number 1): -1 | Growth Rate (Fibroblast; 12 h, replicate number 2): -0.26 | Growth Rate (Fibroblast; 18 h, replicate number 1): 0.24 | Growth Rate (Fibroblast; 18 h, replicate number 2): 0.28 | Growth Rate (Fibroblast; 24 h, replicate number 1): 0.3 | Growth Rate (Fibroblast; 24 h, replicate number 2): 0.18 | Growth Rate (U2OS; 6 h, replicate number 1): 0.44 | Growth Rate (U2OS; 6 h, replicate number 2): 0.8 | Growth Rate (U2OS; 12 h, replicate number 1): 0.77 | Growth Rate (U2OS; 12 h, replicate number 2): 0.69 | Growth Rate (U2OS; 18 h, replicate number 1): 0.85 | Growth Rate (U2OS; 18 h, replicate number 2): 0.73 | Growth Rate (U2OS; 24 h, replicate number 1): 0.92 | Growth Rate (U2OS; 24 h, replicate number 2): 0.78

CCNCCNC(=O)c1c(C)[nH]c(/C=C2\C(=O)Nc3ccc(F)cc32)c1C
Growth Rate (HEK-293T; 6 h, replicate number 1): -0.62 | Growth Rate (HEK-293T; 6 h, replicate number 2): -0.16 | Growth Rate (HEK-293T; 12 h, replicate number 1): -0.52 | Growth Rate (HEK-293T; 12 h, replicate number 2): -0.09 | Growth Rate (HEK-293T; 18 h, replicate number 1): -0.32 | Growth Rate (HEK-293T; 18 h, replicate number 2): 0.09 | Growth Rate (HEK-293T; 24 h, replicate number 1): -0.09 | Growth Rate (HEK-293T; 24 h, replicate number 2): 0.21 | Growth Rate (Fibroblast; 6 h, replicate number 1): -0.96 | Growth Rate (Fibroblast; 12 h, replicate number 1): -1 | Growth Rate (Fibroblast; 12 h, replicate number 2): 0.44 | Growth Rate (Fibroblast; 18 h, replicate number 2): 0.18 | Growth Rate (Fibroblast; 24 h, replicate number 2): 0.1 | Growth Rate (U2OS; 0 h, replicate number 2): -0.6 | Growth Rate (U2OS; 18 h, replicate number 1): 0.78 | Growth Rate (U2OS; 18 h, replicate number 2): 0.77 | Growth Rate (U2OS; 24 h, replicate number 1): 0.69 | Growth Rate (U2OS; 24 h, replicate number 2): 0.7

O=S(=O)(Nc1nncs1)c1cc(Cl)c(Oc2ccc(C(F)(F)F)cc2-c2ccnn2C2CNC2)cc1F
Growth Rate (HEK-293T; 6 h, replicate number 1): 0.2 | Growth Rate (Fibroblast; 18 h, replicate number 1): 0.41 | Growth Rate (U2OS; 0 h, replicate number 1): 0.61 | Growth Rate (U2OS; 0 h, replicate number 2): -0.77 | Growth Rate (U2OS; 6 h, replicate number 2): 0.95 | Growth Rate (U2OS; 18 h, replicate number 1): 0.95 | Growth Rate (U2OS; 18 h, replicate number 2): 1 | Growth Rate (U2OS; 24 h, replicate number 1): 0.86 | Growth Rate (U2OS; 24 h, replicate number 2): 0.98

Cc1cc(O)c(-c2ccc([C@@H](C)CN(C)C)cc2)c2c1[nH]c(=O)c1sccc12
Growth Rate (HEK-293T; 6 h, replicate number 1): -0.94 | Growth Rate (HEK-293T; 6 h, replicate number 2): -0.93 | Growth Rate (HEK-293T; 12 h, replicate number 1): -0.89 | Growth Rate (HEK-293T; 12 h, replicate number 2): -0.74 | Growth Rate (HEK-293T; 18 h, replicate number 1): -0.72 | Growth Rate (HEK-293T; 18 h, replicate number 2): -0.54 | Growth Rate (HEK-293T; 24 h, replicate number 1): -0.64 | Growth Rate (HEK-293T; 24 h, replicate number 2): -0.41 | Growth Rate (Fibroblast; 0 h, replicate number 1): 0.34 | Growth Rate (Fibroblast; 0 h, replicate number 2): 0.6 | Growth Rate (Fibroblast; 6 h, replicate number 1): -1 | Growth Rate (Fibroblast; 6 h, replicate number 2): -0.58 | Growth Rate (Fibroblast; 12 h, replicate number 2): -0.46 | Growth Rate (Fibroblast; 18 h, replicate number 2): -0.35 | Growth Rate (Fibroblast; 24 h, replicate number 1): 0.28 | Growth Rate (Fibroblast; 24 h, replicate number 2): -0.3 | Growth Rate (U2OS; 0 h, replicate number 1): -0.87 | Growth Rate (U2OS; 0 h, replicate number 2): -0.95 | Growth Rate (U2OS; 12 h, replicate number 1): 0.42 | Growth Rate (U2OS; 12 h, replicate number 2): 0.43 | Growth Rate (U2OS; 18 h, replicate number 1): 0.16 | Growth Rate (U2OS; 18 h, replicate number 2): 0.08 | Growth Rate (U2OS; 24 h, replicate number 1): -0.11 | Growth Rate (U2OS; 24 h, replicate number 2): -0.1

CCOC(=O)c1cnn(-c2ccc(NC(=O)C(Cl)=C(Cl)Cl)cc2)c1C(F)(F)F
Growth Rate (HEK-293T; 6 h, replicate number 1): -0.63 | Growth Rate (HEK-293T; 6 h, replicate number 2): -0.52 | Growth Rate (HEK-293T; 12 h, replicate number 1): -0.5 | Growth Rate (HEK-293T; 12 h, replicate number 2): -0.37 | Growth Rate (HEK-293T; 18 h, replicate number 1): -0.51 | Growth Rate (HEK-293T; 18 h, replicate number 2): -0.25 | Growth Rate (HEK-293T; 24 h, replicate number 1): -0.51 | Growth Rate (HEK-293T; 24 h, replicate number 2): -0.13 | Growth Rate (Fibroblast; 6 h, replicate number 2): -1 | Growth Rate (Fibroblast; 12 h, replicate number 1): -1 | Growth Rate (Fibroblast; 12 h, replicate number 2): -0.86 | Growth Rate (Fibroblast; 18 h, replicate number 2): -0.7 | Growth Rate (Fibroblast; 24 h, replicate number 2): -0.57 | Growth Rate (U2OS; 0 h, replicate number 1): -0.17 | Growth Rate (U2OS; 0 h, replicate number 2): 0.55 | Growth Rate (U2OS; 6 h, replicate number 1): -0.33 | Growth Rate (U2OS; 6 h, replicate number 2): 0.04 | Growth Rate (U2OS; 12 h, replicate number 1): -0.42 | Growth Rate (U2OS; 12 h, replicate number 2): -0.46 | Growth Rate (U2OS; 18 h, replicate number 1): -0.49 | Growth Rate (U2OS; 18 h, replicate number 2): -0.43 | Growth Rate (U2OS; 24 h, replicate number 1): -0.43 | Growth Rate (U2OS; 24 h, replicate number 2): -0.42

Cl.Cl.N#Cc1ccc(O[C@@H]2c3ccccc3C[C@H]2N2CCC[C@@H](N)C2)c(Cl)c1
Growth Rate (HEK-293T; 6 h, replicate number 1): -0.97 | Growth Rate (HEK-293T; 6 h, replicate number 2): -0.57 | Growth Rate (HEK-293T; 12 h, replicate number 1): -0.93 | Growth Rate (HEK-293T; 12 h, replicate number 2): -0.24 | Growth Rate (HEK-293T; 18 h, replicate number 1): -0.77 | Growth Rate (HEK-293T; 18 h, replicate number 2): -0.13 | Growth Rate (HEK-293T; 24 h, replicate number 1): -0.66 | Growth Rate (HEK-293T; 24 h, replicate number 2): -0.04 | Growth Rate (Fibroblast; 6 h, replicate number 1): -1 | Growth Rate (Fibroblast; 6 h, replicate number 2): 0.35 | Growth Rate (Fibroblast; 12 h, replicate number 2): 0.27 | Growth Rate (Fibroblast; 18 h, replicate number 2): 0.29 | Growth Rate (Fibroblast; 24 h, replicate number 2): 0.37 | Growth Rate (U2OS; 0 h, replicate number 1): -1 | Growth Rate (U2OS; 12 h, replicate number 1): 0.7 | Growth Rate (U2OS; 12 h, replicate number 2): 0.96 | Growth Rate (U2OS; 18 h, replicate number 1): 0.67 | Growth Rate (U2OS; 18 h, replicate number 2): 0.86 | Growth Rate (U2OS; 24 h, replicate number 1): 0.72 | Growth Rate (U2OS; 24 h, replicate number 2): 0.93

Cc1ccc(-c2c(C(=O)CF)n(CCCO)c3ncnc(N)c23)cc1
Growth Rate (HEK-293T; 6 h, replicate number 1): -0.57 | Growth Rate (HEK-293T; 6 h, replicate number 2): 0.16 | Growth Rate (HEK-293T; 12 h, replicate number 1): 0.54 | Growth Rate (HEK-293T; 12 h, replicate number 2): 0.68 | Growth Rate (HEK-293T; 18 h, replicate number 1): 0.96 | Growth Rate (HEK-293T; 18 h, replicate number 2): 0.85 | Growth Rate (HEK-293T; 24 h, replicate number 2): 0.87 | Growth Rate (Fibroblast; 6 h, replicate number 2): -1 | Growth Rate (Fibroblast; 12 h, replicate number 2): -0.21 | Growth Rate (Fibroblast; 18 h, replicate number 1): 0.29 | Growth Rate (Fibroblast; 18 h, replicate number 2): 0.3 | Growth Rate (Fibroblast; 24 h, replicate number 1): 0.33 | Growth Rate (Fibroblast; 24 h, replicate number 2): 0.41 | Growth Rate (U2OS; 0 h, replicate number 1): 0.43 | Growth Rate (U2OS; 0 h, replicate number 2): -0.79 | Growth Rate (U2OS; 6 h, replicate number 2): 0.44 | Growth Rate (U2OS; 12 h, replicate number 1): 0.92 | Growth Rate (U2OS; 18 h, replicate number 2): 0.96 | Growth Rate (U2OS; 24 h, replicate number 2): 0.98

CC[C@]1(C)C[C@@H](OC(=O)CSc2nnc(N)[nH]2)[C@@]2(C)[C@H](C)CC[C@@]3(CCC(=O)[C@H]32)[C@@H](C)[C@@H]1O
Growth Rate (HEK-293T; 6 h, replicate number 1): 0.09 | Growth Rate (HEK-293T; 6 h, replicate number 2): 0.46 | Growth Rate (HEK-293T; 12 h, replicate number 1): 0.86 | Growth Rate (HEK-293T; 12 h, replicate number 2): 0.81 | Growth Rate (HEK-293T; 18 h, replicate number 1): 0.65 | Growth Rate (HEK-293T; 18 h, replicate number 2): 0.83 | Growth Rate (HEK-293T; 24 h, replicate number 1): 0.84 | Growth Rate (HEK-293T; 24 h, replicate number 2): 0.87 | Growth Rate (Fibroblast; 0 h, replicate number 2): -0.62 | Growth Rate (Fibroblast; 6 h, replicate number 1): -0.17 | Growth Rate (Fibroblast; 6 h, replicate number 2): -0.93 | Growth Rate (Fibroblast; 12 h, replicate number 2): 0.82 | Growth Rate (Fibroblast; 18 h, replicate number 1): 0.7 | Growth Rate (Fibroblast; 18 h, replicate number 2): 0.99 | Growth Rate (Fibroblast; 24 h, replicate number 2): 0.97 | Growth Rate (U2OS; 12 h, replicate number 1): 0.98 | Growth Rate (U2OS; 18 h, replicate number 1): 0.95
